Assay results from US8367815B2, “Modular polynucleotides for ligand-controlled regulatory systems” (California Institute of Technology, priority 2007, dated 2013).
Several values for one entry are separate records, joined by “and”; a condition that tells them apart may be missing. Equal entries are not always repeated. Where two headings read alike, the source gives them in different places.

Key:
EGFP = conditions: for Basal expression levels (%): GFP(%): median green fluorescence of transfected vs untransfected cells in same well, without ligand, HEK293T tTA-d2EGFP; for η (dynamic range): ratio of GFP(%) at high (3 mM) and low (1 μM) theophylline concentrations
Description: The functionality of shRNA switches was assessed in mammalian cell culture. Applicants transiently transfected plasmids harboring S1 and various switch controls transcribed from a U6 promoter into HEK293T cells stably expressing EGFP (Abbas-Terki et al, 2002).
In this example, Applicants systematically evaluated the tuning capabilities of shRNA switches with the aid of a mathematical model relating ligand concentration and target gene expression levels. Standard model parameters were incorporated to represent each chemical step from the proposed mechanism (Example 7). […] These assumptions yield the following relationship between relative expression levels of the target gene (f; output) and exogenous ligand concentration (L; input): f=1−e·fshRNA[1+KComp(1+KApt·L)]^−h, (1)
The power of this model lies in the ability to calculate realistic parameter values from a minimal set of experiments: fshRNA can be found in one experiment by measuring the relative knockdown of the target gene induced by an shRNA that contributes the shRNA stem, e can be calculated from basal expression levels from a few shRNA switches that strongly prefer the active conformation, and h can be calculated by generating a ligand response curve with one shRNA switch—as long as administration of the highest ligand concentration results in negligible knockdown of the target gene. The remaining model parameters, KComp and KApt, can be found from the same response curve used to calculate […], since varying KApt only changes the EC50 while varying KComp changes both EC50 and basal expression levels. A summary of the model parameters and how values are experimentally obtained are included in Table III below.
To investigate the validity of the model, Applicants experimentally determined model parameter values as described above: fshRNA was equated to the knockdown achieved with the original shRNA targeting EGFP (sh); e was calculated from the average basal expression levels produced by shRNA switches S5, S7, S9, and S10; and KComp, KApt, and h were determined by a model fit of the theophylline response curve for S1. […] The EC50 is related to KApt and KComp according to the following: EC50=(1+KComp^−1)KApt^−1, (4)
Cell culture and transfection. All cells were maintained at 37° C. in a 5% CO2-humidified incubator. HEK293T, HEK293, HeLa, and HEK293T tTA-d2EGFP cells were maintained in minimal essential medium (MEM) alpha media (Invitrogen) supplemented with 10% fetal bovine serum (FBS) (Invitrogen), whereas MDA-MB-231 cells were maintained in RMPI 1640 with glutamine (Invitrogen) supplemented with 10% FBS. Cells were transfected one day after seeding using Fugene 6 (Roche) according to the manufacturer's instructions, followed by the immediate addition of ligand. HEK293T tTA-d2EGFP were transfected with shRNA vector (250 ng), whereas cells lacking endogenous GFP were cotransfected with shRNA vector (250 ng) and the pcDNA3.1(+) (Invitrogen) harboring the d2EGFP gene (25 ng) (Clontech). One day post-transfection the media and ligand were replaced. Transfected cells were collected three days post-transfection for flow cytometry analysis.
Cell fluorescence analysis. Three days post-transfection, cells were trypsinized and subjected to flow cytometry analysis using the Cell Lab Quanta SC MPL (Beckman Coulter). Cells were first gated twice for (1) viability as assessed by electronic volume (EV) versus side scatter (SS) and (2) green fluorescence above autofluorescence to remove a nonfluorescent subpopulation.

[1] = In-line probing of S4t under varying theophylline concentrations; format: binding
From the text: Individual bands from the in-line gel (FIG. 1B) were quantified and normalized to an adjacent constant region to remove bias from inconsistent well loading. C56 bands were normalized to U47 bands, while C74 bands were normalized to U100-G102 bands.
Applicants designed an initial shRNA switch (S1) to target EGFP and respond to theophylline by incorporating an EGFP-targeting guide strand and the theophylline aptamer (Zimmermann et al, 2000) into our switch platform (FIG. 1A). Applicants used in-line probing (Soukup and Breaker, 1999, incorporated herein by reference, and briefly described below) to assess the structural characteristics of a T7-transcribed variant similar to S1 (S4t; FIG. 1B). In-line probing provides structural information from the ligand dependence of spontaneous RNA cleavage. See Materials and Methods section below.
In-line probing. In-line probing was conducted as described previously (Soukup et al, 1999). After heating at 70° C. for 2 min followed by slow cooling to room temperature, 5′ radiolabeled RNAs ([…]) were incubated for 40 hours at 25° C. in varying amounts of theophylline with 50 mM Tris-HCl pH 8.5, 20 mM MgCl2. Reactions were terminated by adding an equal volume of loading buffer (10 M urea, 1.5 mM EDTA). The alkaline hydrolysis ladder was generated by incubating RNA in 50 mM NaHCO3/Na2CO3 pH 9.2, 1 mM EDTA for 6 min at 95° C. The G-specific cleavage ladder was generated by incubating RNA in 1 U RNase T1 (Ambion) with 20 mM sodium citrate pH 5.0, 1 mM EDTA, 7 M urea, and 3 μg yeast RNA for 25 min at 25° C. RNAs were resolved on an 8% denaturing polyacrylamide gel, dried for 90 min at 70° C., then visualized on an FX phosphorimager (BioRAD). Band quantification was performed using the Quantity One software package (BioRAD). To account for well loading variability, quantified band intensities were normalized to an adjacent band of similar intensity showing negligible theophylline dependence.

Molecule | Basal expression levels (%) (EGFP) | η (dynamic range) (EGFP) | also measured
S10: EGFP shRNA switch, larger theophylline aptamer, combined switching strand changes from S4; Table I (pCS808) (CTCGATACCAGCATCGACTCTTCGATGCCCTTGGCAGCGAGCTGACCCTGACTAGA) | 29.4 | 3.60 | 
S11: EGFP shRNA switch with theophylline aptamer variant (shorter aptamer stem); Table I (pCS634) (CTCGAGATACCAGCCGAAAGGCCCTTGGCAGCTCGGGCTGACCCTGACTAGA) | 20.0 | 4.20 | 
S12: EGFP shRNA switch with theophylline aptamer variant (shorter aptamer stem); Table I (pCS635) (CTCGAGATACCACCGAAAGGCCTTGGCAGCTCGGGCTGACCCTGACTAGA) | 13.4 | 4.06 | 
S13: optimized EGFP shRNA switch, smaller theophylline aptamer; Table I (pCS911) (CTCGAGATACCAGCCGAAAGGCCCTTGGCAGCTCGGGCTGACCCTGCTAGA) | 16.7 | 5.61 | 
S14: EGFP shRNA switch, smaller theophylline aptamer; Table I (pCS908) (CTCGATACCAGCCGAAAGGCCCTTGGCAGCGAGCTGACCCTGCTAGA) | 14.3 | 2.86 | 
S15: EGFP shRNA switch, smaller theophylline aptamer; Table I (pC5909) (CTCGATACCAGCCGAAAGGCCCTTGGCAGCGGGCTGACCCTGCTAGA) | 11.2 | 2.56 | 
S16: EGFP shRNA switch, smaller theophylline aptamer; Table I (pCS910) (CTCGATACCAGCCGAAAGGCCCTTGGCAGCGAGCTGACCCTGACTAGA) | 21.7 | 3.85 | 
S17: EGFP shRNA switch, smaller theophylline aptamer; Table I (pCS941) (CTCGAGATACCAGCCGAAAGGCCCTTGGCAGCTCGAGCTGACCCTGCTAGA) | 17.5 | 3.12 | 
S18: EGFP shRNA switch, smaller theophylline aptamer; Table I (pCS942) (CTCGAGATACCAGCCGAAAGGCCCTTGGCAGCTCGAGCTGACCCTACTAGA) | 19.5 | 3.89 | 
S19: EGFP shRNA switch, smaller theophylline aptamer; Table I (pCS1001) (CTCGAGATACCAGCCGAAAGGCCCTTGGCAGCTCGGGCTGACCCTGAACTAGA) | 38.3 | 2.38 | 
S20: EGFP shRNA switch, smaller theophylline aptamer; Table I (pCS1002) (CTCGAGATACCAGCCGAAAGGCCCTTGGCAGCTCGGGCTGACCCTGAAGCTAGA) | 49.8 | 1.75 | 
S21: EGFP shRNA switch, smaller theophylline aptamer; Table I (pCS1003) (CTCGAGATACCAGCCGAAAGGCCCTTGGCAGCTCGGGCTGACCCTGGCTAGA) | 10.8 | 2.52 | 
S22: EGFP shRNA switch, smaller theophylline aptamer; Table I (pCS1004) (CTCGATACCAGCCGAAAGGCCCTTGGCAGCGAGCTGACCCTGAACTAGA) | 35.0 | 2.73 | 
S23: EGFP shRNA switch, smaller theophylline aptamer; Table I (pCS1061) (CTCGAGATACCAGCCGAAAGGCCCTTGGCAGCTCGAGCTGATCCTGCTAGA) | 16.6 | 3.30 | 
S24: EGFP shRNA switch, smaller theophylline aptamer; Table I (PCS1062) (CTCGAGATACCAGCCGAAAGGCCCTTGGCAGCTCGGGCTGATCCTGCTAGA) | 10.8 | 3.00 | 
S25: EGFP shRNA switch, smaller theophylline aptamer; Table I (pCS1063) (CTCGAGATACCAGCCGAAAGGCCCTTGGCAGCTCGGGCTGATCCTGACTAGA) | 11.8 | 2.63 | 
S4t: T7-transcribed variant similar to S1, used for in-line probing; SEQ ID NO: 51 (nucleic acid, RNA, phosphodiester; further chemistry not fully specified) GGGUCAGAUGAACUUCAGGGUCAGCUCGAGAUACCAGCAUCGACUCUUCGAUGCCCUUGGCAGCUCGGGCUGACCCUGCUAGAGCUGACCCUGAAUCAUCUGACCCUU |  |  | KComp solved from in-line assay results ([1]; equation (4) with ratio of apparent KD to KD of aptamer alone): 0.06; ratio of the apparent KD to the KD of the aptamer alone ([1]; theophylline): ~17; Kd ([1]; theophylline, Michaelis-Menten fit, C56 bands normalized to U47, read-out: KD from in-line cleavage at C56): 3.6 µM; Kd ([1]; theophylline, Michaelis-Menten fit, C74 bands normalized to U100-G102, read-out: KD from in-line cleavage at C74): 6.8 µM; Kd ([1]; theophylline, from quantifying cleavage products at two positions, read-out: apparent dissociation constant (KD)): ~5 µM and 5 µM
S1: initial shRNA switch targeting EGFP, theophylline aptamer; Table I (pCS630), SEQ ID NO: 48 (nucleic acid) GGUGCAGAUGAACUUCAGGGUCAGCUCGAGAUACCAGCAUCGACUCUUCGAUGCCCUUGGCAGCUCGGGCUGACCCUGACUAGAGCUGACCCUGAAUCAUCUGCACCUU | 33.8 | 2.71 | knockdown of EGFP (EGFP; compared to original shRNA (sh) and scrambled shRNA (neg), flow cytometry): intermediate knockdown; e (RNAi processing efficiency) (EGFP; from average basal expression levels of switches that highly favor the active conformation): 0.85; theophylline dependence of GFP levels (EGFP; in the presence of theophylline): increased in a dose-dependent manner; KComp (partitioning coefficient between active and inactive conformations) (EGFP; least-squares model fit of theophylline response curve): 0.17; h (Hill coefficient) (EGFP; model fit of theophylline response curve): 1.33; KApt (association constant between ligand and formed aptamer) (EGFP; model fit of theophylline response curve in cells): 0.016 µM⁻¹; EC50 (EGFP; read-out: effective concentration to achieve 50% activity (EC50), theophylline concentration, GFP levels, HEK293T cells stably expressing EGFP): ~300 µM; fshRNA (relative knockdown by original shRNA) (EGFP; set by separate transfection with original shRNA targeting EGFP (sh), parameter of the S1 transfer function): 0.94
